Laboratory results: US4548923A, “Muramyl peptides and processes for their manufacture” (Ciba Geigy Corporation, priority 1982, dated 1985)

What was measured:
Alveolar rat macrophages = experiment: macrophage activation: cytotoxicity of alveolar rat macrophages against 125I-marked tumour cells; assay type: cell-based
Method: Alveolar rat macrophages are obtained by lung washing, plated out and incubated in vitro for 24 hours either with liposomes that are charged with the active ingredient, or with the active ingredient in physiological salt solution (phosphate buffered saline, PBS), ^125 I-marked tumour cells are added and incubation is continued for a further 72 hours. Subsequently the dead tumour cells are washed away and the number of tumour cells still living is determined on the basis of their radioactivity. […] The specific cytotoxicity [%] is calculated as follows: [formula]
Further details of the above-mentioned test method are described in I. J. Fidler et. al., J. Biol. Response Modifiers 1, 43-55 (1982).

[1] = test for pyrogenity in rabbits (European Pharmacopoeia); assay type: in vivo; details: subcutaneous administration, 30 mg/kg
Excerpt: The test for pyrogenity can be carried out in rabbits in accordance with the instructions given in European Pharmacopoeia, Vol. 2, pages 56-59 (1971).

[2] = Active ingredient in 100 μg of lipsomes per 0.2 ml, 0.02 μg/culture
[3] = Active ingredient in 100 μg of lipsomes per 0.2 ml, 0.2 μg/culture
[4] = Active ingredient in 100 μg of lipsomes per 0.2 ml, 2 μg/culture
[5] = Active ingredient in 0.2 ml of PBS, 0.02 μg/culture
[6] = Active ingredient in 0.2 ml of PBS, 0.2 μg/culture
[7] = Active ingredient in 0.2 ml of PBS, 2 μg/culture
[8] = Active ingredient in 100 μg of lipsomes per 0.2 ml, 20 μg/culture

Compound	Specific cytotoxity [%] (Alveolar rat macrophages; [2])	Specific cytotoxity [%] (Alveolar rat macrophages; [3])	Specific cytotoxity [%] (Alveolar rat macrophages; [4])	Specific cytotoxity [%] (Alveolar rat macrophages; [5])	Specific cytotoxity [%] (Alveolar rat macrophages; [6])	Specific cytotoxity [%] (Alveolar rat macrophages; [7])	Specific cytotoxity [%] (Alveolar rat macrophages; [8])	Specific cytotoxity [%] (Alveolar rat macrophages; Active ingredient in 0.2 ml of PBS, 20 μg/culture)	pyrogenic effect [1]
the sodium salt of N--acetylmuramyl-L-valyl-D-glutamyl-(C α)-n-butyl ester-(Cγ)-L-alanine-2-(1,2-dipalmitoyl-sn-glycero-3-hydroxyphosphoryloxy)-ethylamide [compound IV]	64%	68%	52%	23%	18%	20%	–	–	–
the sodium salt of N--acetylmuramyl-L-α-aminobutyryl-D-glutamyl-(Cα)-n-butyl ester-(Cγ)-L-alanine-2-(1,2-dipalmitoyl-sn-glycero-3-hydroxyphosphoryloxy)-ethyl-amide [compound II]	–	10%	23%	–	21%	48%	11%	74%	–
the sodium salt of N-propionylnormuramyl-L-alanyl-D-glutamyl-(Cα)-n-butyl ester-(Cγ)-L-alanine-2-(1,2-dipalmitoyl-sn-glycero-3-hydroxyphosphoryloxy)-ethylamide [Active ingredient II]	64%	76%	79%	3%	81%	47%	–	–	–
CCCCCCCCCCCCCCCC(=O)OCC(COP(=O)([O-])OCCNC(=O)C(C)NC(=O)CCC(NC(=O)C(C)NC(=O)C(C)OC1C(O)C(CO)OC(O)C1NC(C)=O)C(N)=O)OC(=O)CCCCCCCCCCCCCCC.[Na+] [sodium salt of N-acetylmuramyl-L-alanyl-D-isoglutaminyl-L-alanine-2-(1,2-dipalmitoyl-sn-glycero-3-hydroxyphosphoryloxy)-ethylamide, reference compound]	–	–	–	–	–	–	–	–	highly pyrogenic
CCCCCCCCCCCCCCCC(=O)OC[C@H](COP(=O)([O-])OCCNC(=O)[C@H](C)NC(=O)CC[C@@H](NC(=O)[C@H](C)NC(=O)[C@@H](C)O[C@H]1[C@H](O)[C@@H](CO)OC(O)[C@@H]1NC(C)=O)C(=O)OCCCC)OC(=O)CCCCCCCCCCCCCCC.[Na+] (stereo partly drawn) [Active ingredient I, the sodium salt of N-acetylmuramyl-L-alanyl-D-glutamyl-(Cα)-n-butyl ester-(Cγ)-L-alanine-2-(1,2-dipalmitoyl-sn-glycero-3-hydroxyphosphoryloxy)-ethylamide]	–	56%	51%	–	39%	59%	44%	–	no pyrogenic effect
